Reference: US10005824B2, “Selective PYY compounds and uses thereof” (Novo Nordisk A/S, priority 2015, dated 2018)

Assays:
human NPY Y2 receptor = target: T1, human NPY Y2 receptor (Homo sapiens, UniProt P49146); assay: Actone functional potency assay (Y2 in vitro potency, whole cell); assay type: cell-based
T1 construct: host or cells: HEK-293 cells that also express a cAMP-sensitive calcium channel
T1 sequence (P49146 1-381): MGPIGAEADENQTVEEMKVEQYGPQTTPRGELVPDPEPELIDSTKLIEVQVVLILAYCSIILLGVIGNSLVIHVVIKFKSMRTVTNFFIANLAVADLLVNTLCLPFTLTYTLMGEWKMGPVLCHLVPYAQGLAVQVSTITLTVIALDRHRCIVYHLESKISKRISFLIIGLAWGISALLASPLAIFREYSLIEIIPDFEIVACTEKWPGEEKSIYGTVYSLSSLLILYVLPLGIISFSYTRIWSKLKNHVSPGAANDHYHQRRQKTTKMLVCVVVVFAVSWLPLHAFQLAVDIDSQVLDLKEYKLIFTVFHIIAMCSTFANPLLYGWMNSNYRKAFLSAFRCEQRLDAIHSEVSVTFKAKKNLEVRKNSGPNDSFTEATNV
Text: The purpose of this example is to test the activity, or potency, of the PYY compounds in vitro. The Y2 in vitro potency is the measure of the activation of the human Y2 receptor subtype in a whole cell assay.
Actone Functional Potency Assay
The Neuropeptide Y (NPY) receptors are Gi-coupled seven trans-membrane receptors that mainly signal through the cAMP dependent pathway by inhibiting adenylate cyclase activity which results in a decrease of cAMP production from ATP. The Actone assay is based on a modified calcium channel that has a selective binding for cAMP, resulting in cellular calcium influx, detected by a calcium responsive dye. In order to measure decreased levels of cAMP, as result of NPY receptor activation, the β1/β2-adrenoreceptor agonist, isoproterenol, is added to activate adenylate cyclase and increases cAMP levels in the cell. Decreased cellular calcium concentrations, reflecting a decrease of cAMP levels due to NPY receptor activation, is detected as a decrease in fluorescence from the calcium sensitive dye.

human Y1 receptor = target: T2, human Y1 receptor (Homo sapiens, UniProt P25929); assay: Scintillation proximity assay (SPA) receptor binding, Y1
T2 construct: expressed in transfected cells; host or cells: BHK-21 clone 6-482-8, IPTG-induced (membrane preparation)
T2 sequence (P25929 1-384): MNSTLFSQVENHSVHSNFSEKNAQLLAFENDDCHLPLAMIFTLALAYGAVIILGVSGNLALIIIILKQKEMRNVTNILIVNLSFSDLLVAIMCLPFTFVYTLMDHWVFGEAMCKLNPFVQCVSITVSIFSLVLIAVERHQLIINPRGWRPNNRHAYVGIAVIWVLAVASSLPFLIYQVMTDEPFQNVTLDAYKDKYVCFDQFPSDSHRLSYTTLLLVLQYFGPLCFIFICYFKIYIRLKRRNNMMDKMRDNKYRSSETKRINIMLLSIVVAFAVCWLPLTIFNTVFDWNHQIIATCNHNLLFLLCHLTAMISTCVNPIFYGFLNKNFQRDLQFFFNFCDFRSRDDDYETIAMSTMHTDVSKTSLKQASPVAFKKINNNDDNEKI
Protocol: (§1) The purpose of this example is to test the in vitro binding of the PYY compounds to the Y1, Y2, Y4 and Y5 receptor subtypes, respectively. The receptor binding affinity is a measure of affinity of a compound for the human Y1, Y2, Y4 and Y5 receptor subtypes, respectively.
(§2) Scintillation Proximity Assay (SPA)
(§3) NPY-Receptor Expressing Cell Lines.
(§4) All cells were cultured at +37° C. in a humidified atmosphere with 5% CO2. […] CHO-K1 cells stably expressing the human Y2 receptor (P49146, NPY2R_HUMAN, Uniprot) were cultured in DMEM F-12 with 10% FBS, 1% P/S, 150 μg/ml Hygromycin B and 10 μg/ml Puromycin antibiotic. CHO-K1 cells stably expressing the human Y4 receptor (P50391, NPY4R_HUMAN, Uniprot) were cultured in DMEM F-12 with 10% FBS, 1% P/S, 10 μg/ml Puromycin. HEK-293 cells stably expressing the human Y5 receptor (Q15761, NPY5R_HUMAN, Uniprot) were cultured in DMEM F-12 medium containing 10% FBS, 1% Penicillin-Streptomycin, 250 μg/ml G418 and 1 μg/ml puromycin.
The homogenate was centrifuged at 35000 g using an ultracentrifuge for 10 minutes at +4° C. and the supernatant was discarded and fresh homogenization buffer added. Homogenization of the pellet was repeated a total of three times.
Human Y receptor SPA binding assay were performed in white 96-well plates in a total volume of 200 μl per well.
(§5) Plates were sealed and incubated at +25° C. for 2 hours in a plate shaker set at 400 rpm and thereafter centrifuged at 1500 rpm for 10 minutes prior to reading of luminescence on a microplate scintillation and luminescence counter. […] Displacement of radioligand was measured as reduction in luminescence and IC50 values were calculated by nonlinear regression analysis of sigmoidal dose-response curves.

human Y5 receptor = target: T3, human Y5 receptor (Homo sapiens, UniProt Q15761); assay: Scintillation proximity assay (SPA) receptor binding, Y5; conditions: membranes of HEK-293 cells, [125I]-PYY(1-36)
T3 construct: expressed in transfected cells; host or cells: HEK-293 (membrane preparation)
T3 sequence (Q15761 1-445): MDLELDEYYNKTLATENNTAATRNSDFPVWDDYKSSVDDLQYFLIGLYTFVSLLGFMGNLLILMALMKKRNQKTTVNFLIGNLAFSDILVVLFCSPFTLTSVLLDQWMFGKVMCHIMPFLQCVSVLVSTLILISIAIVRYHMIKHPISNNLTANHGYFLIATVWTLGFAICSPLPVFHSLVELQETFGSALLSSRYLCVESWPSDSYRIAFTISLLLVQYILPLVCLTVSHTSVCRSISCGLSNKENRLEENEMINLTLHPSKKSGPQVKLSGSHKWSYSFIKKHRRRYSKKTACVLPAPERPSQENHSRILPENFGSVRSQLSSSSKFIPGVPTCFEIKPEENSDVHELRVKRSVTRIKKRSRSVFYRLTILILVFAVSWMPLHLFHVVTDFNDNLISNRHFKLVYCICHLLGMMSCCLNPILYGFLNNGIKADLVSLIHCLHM
Protocol: as §1, §2, §3
as §4, with “puromycin. […]” for “puromycin.”
as §5

Compound | EC50 (human NPY Y2 receptor) [nM] | Ki (human Y1 receptor) [nM] | Ki (human Y5 receptor) [nM]
CC(C)CC(=O)N[C@@H](CCCNC(=N)N)C(=O)N1CCC[C@H]1C(=O)N[C@@H](CCC(=O)O)C(=O)N[C@@H](C)C(=O)N1CCC[C@H]1C(=O)NCC(=O)N[C@@H](CCCCNC(=O)CC[C@H](NC(=O)COCCOCCNC(=O)CC[C@H](NC(=O)CCCCCCCCCCCCCCCCC(=O)O)C(=O)O)C(=O)O)C(=O)N[C@@H](CC(=O)O)C(=O)N[C@@H](C)C(=O)N[C@@H](CO)C(=O)N1CCC[C@H]1C(=O)N[C@@H](CCC(=O)O)C(=O)N[C@@H](CCC(=O)O)C(=O)N[C@@H](CC(C)C)C(=O)N[C@@H](CCC(N)=O)C(=O)N[C@@H](CCCNC(=N)N)C(=O)N[C@@H](Cc1ccc(O)cc1)C(=O)N[C@@H](Cc1ccc(O)cc1)C(=O)N[C@@H](C)C(=O)N[C@@H](CCC(=O)O)C(=O)N[C@@H](CC(C)C)C(=O)N[C@@H](CCCNC(=N)N)C(=O)N[C@@H](Cc1c[nH]cn1)C(=O)N[C@@H](Cc1ccc(O)cc1)C(=O)N[C@@H](Cc1ccc(O)cc1)C(=O)N[C@@H](CC(N)=O)C(=O)N[C@@H](Cc1c[nH]c2ccccc12)C(=O)N[C@@H](CC(C)C)C(=O)N[C@H](C(=O)N[C@@H](CCCNC(=N)N)C(=O)N[C@@H](CCC(N)=O)C(=O)N[C@@H](CCCNC(=N)N)C(=O)N[C@@H](Cc1ccc(O)cc1)C(N)=O)[C@@H](C)O [Compound 53, N{alpha-4}-(3-Methylbutanoyl)-N{Epsilon-10}-[(4S)-4-carboxy-4-[[2-[2-[2-[[(4S)-4-carboxy-4-(17-carboxyheptadecanoylamino)butanoyl]amino]ethoxy]ethoxy]-acetyl]amino]butanoyl]-[Arg4,Lys10,Gln18,Glu23,Tyr28,Trp30,Leu31]-PYY(4-36)] | 0.77 | > 10000 | 
CC(C)CC(=O)N[C@@H](CCCNC(=N)N)C(=O)N1CCC[C@H]1C(=O)N[C@@H](CCC(=O)O)C(=O)N[C@@H](C)C(=O)N1CCC[C@H]1C(=O)N1CCC[C@H]1C(=O)N[C@@H](CCCCNC(=O)CC[C@H](NC(=O)COCCOCCNC(=O)CC[C@H](NC(=O)CCCCCCCCCCCCCCCCC(=O)O)C(=O)O)C(=O)O)C(=O)N[C@@H](CC(=O)O)C(=O)N[C@@H](C)C(=O)N[C@@H](CO)C(=O)N1CCC[C@H]1C(=O)N[C@@H](CCC(=O)O)C(=O)N[C@@H](CCC(=O)O)C(=O)N[C@@H](CC(C)C)C(=O)N[C@@H](CCC(N)=O)C(=O)N[C@@H](CCCNC(=N)N)C(=O)N[C@@H](Cc1ccc(O)cc1)C(=O)N[C@@H](Cc1ccc(O)cc1)C(=O)N[C@@H](C)C(=O)N[C@@H](CO)C(=O)N[C@@H](CC(C)C)C(=O)N[C@@H](CCCNC(=N)N)C(=O)N[C@@H](Cc1c[nH]cn1)C(=O)N[C@@H](Cc1ccc(O)cc1)C(=O)N[C@@H](Cc1ccc(O)cc1)C(=O)N[C@@H](CC(N)=O)C(=O)N[C@@H](Cc1c[nH]c2ccccc12)C(=O)N[C@@H](CC(C)C)C(=O)N[C@H](C(=O)N[C@@H](CCCNC(=N)N)C(=O)N[C@@H](CCC(N)=O)C(=O)N[C@@H](CCCNC(=N)N)C(=O)N[C@@H](Cc1ccc(O)cc1)C(N)=O)[C@@H](C)O [Compound 56, N{alpha-4}-(3-Methylbutanoyl)-N{Epsilon-10}-[(4S)-4-carboxy-4-[[2-[2-[2-[[(4S)-4-carboxy-4-(17-carboxyheptadecanoylamino)butanoyl]amino]ethoxy]ethoxy]-acetyl]amino]butanoyl]-[Arg4,Pro9,Lys10,Gln18,Tyr28,Trp30,Leu31]-PYY(4-36)] |  | > 10000 | 279
CC(C)CC(=O)N[C@@H](CCCNC(=N)N)C(=O)N1CCC[C@H]1C(=O)N[C@@H](CCC(=O)O)C(=O)N[C@@H](C)C(=O)N1CCC[C@H]1C(=O)NCC(=O)N[C@@H](CCCCNC(=O)CC[C@H](NC(=O)COCCOCCNC(=O)CC[C@H](NC(=O)CCCCCCCCCCCCCCCCC(=O)O)C(=O)O)C(=O)O)C(=O)N[C@@H](CC(=O)O)C(=O)N[C@@H](C)C(=O)N[C@@H](CO)C(=O)N1CCC[C@H]1C(=O)N[C@@H](CCC(=O)O)C(=O)N[C@@H](CCC(=O)O)C(=O)N[C@@H](CC(C)C)C(=O)N[C@@H](CCC(N)=O)C(=O)N[C@@H](CCCNC(=N)N)C(=O)N[C@@H](Cc1ccc(O)cc1)C(=O)N[C@@H](Cc1ccc(O)cc1)C(=O)N[C@@H](C)C(=O)N[C@@H](CO)C(=O)N[C@@H](CC(C)C)C(=O)N[C@@H](CCCNC(=N)N)C(=O)N[C@@H](Cc1c[nH]cn1)C(=O)N[C@@H](Cc1ccc(O)cc1)C(=O)N[C@@H](Cc1ccc(O)cc1)C(=O)N[C@@H](CC(N)=O)C(=O)N[C@@H](Cc1c[nH]c2ccccc12)C(=O)N[C@@H](CC(C)C)C(=O)N[C@H](C(=O)N[C@@H](CCCNC(=N)N)C(=O)N[C@@H](CCC(N)=O)C(=O)N[C@@H](CCCNC(=N)N)C(=O)N[C@@H](Cc1ccc(O)cc1)C(N)=O)[C@@H](C)O [Compound 59, N{alpha-4}-(3-Methylbutanoyl)-N{Epsilon-10}-[(4S)-4-carboxy-4-[[2-[2-[2-[[(4S)-4-carboxy-4-(17-carboxyheptadecanoylamino)butanoyl]amino]ethoxy]ethoxy]-acetyl]amino]butanoyl]-[Arg4,Lys10,Gln18,Tyr28,Trp30,Leu31]-PYY-(4-36)] |  | > 10000 | 279
